The target in assay [1] is T1, MMP-3 (Homo sapiens, UniProt P08254).
T1 construct: Truncated Prostromelysin-257 was expressed in a soluble form in E.coli; made in house; host or cells: E. coli
In words: Primary Thiopeptilide MMP-3 Inhibition Assay. Format: biochemical. To be noted: for IC50: pH 6.5, 13 nM stromelysin, x (n) = average of n determinations, read-out: MMP-3 Thiopep. IC50; for inhibition at 5 µM: read-out: MMP-3 Thiopep. % inhibition.
Protocol: Enzyme: recombinant stromelysin expressed in E.coli and purified as described above. […] The protocols for the assay of compounds as stromelysin inhibitors was the same as that used for MMP-9 except that the assay buffer was 50 mM MES, pH 6.5 containing 150 mM NaCl, 10 mM CaCl2, 0.005% Brij, and 1% DMSO.

Assay [2] has as its target T2, MMP-9 (Homo sapiens, UniProt P14780).
T2 construct: from tissue; host or cells: human polymorphonuclear leukocytes (PMN) from whole blood (New York Blood Center), PMA-stimulated supernatant
In words: Thiopeptilide MMP-9 Inhibition Assay. Format: biochemical. To be noted: for IC50: pH 6.5, x (n) = average of n determinations, read-out: MMP-9: Thiopep. IC50; for inhibition at 5 µM: read-out: MMP-9: Thiopep. % inhibition.

Structures can show the parent of a compound that is named as a salt. Where two headings read alike, the source gives them in different places.

T2 sequence (P14780 107-707 limits assumed): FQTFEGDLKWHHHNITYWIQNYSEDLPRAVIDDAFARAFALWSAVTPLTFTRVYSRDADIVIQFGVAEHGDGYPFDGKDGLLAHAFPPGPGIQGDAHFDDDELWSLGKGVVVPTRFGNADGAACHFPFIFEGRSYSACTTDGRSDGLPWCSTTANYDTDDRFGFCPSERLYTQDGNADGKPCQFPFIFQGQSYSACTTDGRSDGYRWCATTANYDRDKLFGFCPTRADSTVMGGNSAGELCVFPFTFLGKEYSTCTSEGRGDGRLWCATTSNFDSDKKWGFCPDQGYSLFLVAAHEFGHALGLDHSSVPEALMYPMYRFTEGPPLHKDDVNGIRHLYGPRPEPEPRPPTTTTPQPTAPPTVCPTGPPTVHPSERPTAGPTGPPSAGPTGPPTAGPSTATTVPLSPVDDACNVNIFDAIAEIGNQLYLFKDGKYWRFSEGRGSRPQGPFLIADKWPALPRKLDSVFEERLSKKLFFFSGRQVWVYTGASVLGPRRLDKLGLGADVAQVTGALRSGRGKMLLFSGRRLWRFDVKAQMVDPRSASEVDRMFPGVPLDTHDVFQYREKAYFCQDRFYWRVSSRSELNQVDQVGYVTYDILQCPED
T1 sequence (P08254 100-274 limits assumed): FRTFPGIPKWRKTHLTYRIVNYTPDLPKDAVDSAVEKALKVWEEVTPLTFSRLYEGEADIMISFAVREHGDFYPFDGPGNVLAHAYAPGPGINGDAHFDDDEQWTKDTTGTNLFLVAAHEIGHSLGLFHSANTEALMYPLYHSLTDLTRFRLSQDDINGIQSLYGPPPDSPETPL

As usually defined, the IC50 is the concentration at which inhibition is half-maximal. On to `O=C(CC(CCCc1ccccc1)C(=O)O)c1ccc(-c2ccc(Cl)s2)cc1` (stereo not drawn) [Example 68, Benzenepentanoic acid, α-[2-[4-(5-chloro-2-thienyl)phenyl]-2-oxoethyl]-], for which the IC50 stood at 280 nM in assay [1] and 300 nM in assay [2].
On to `CC(C)(C)C(=O)SCC(CC(=O)O)C(=O)c1ccc(-c2ccc(Cl)cc2)cc1` (stereo not drawn) [Example 256, [1,1'-Biphenyl]-4-butanoic acid, 4'-chloro-β-[[(2,2-dimethyl-1-oxopropyl)thio]methyl]-γ-oxo-], for which the IC50 stood at 600 nM in assay [1] and 3000 nM in assay [2].
By inhibition is commonly meant the drop in the measured response relative to a control, in per cent. With `O=C(CC(CCCc1ccccc1)C(=O)O)c1ccc(-c2ccc(Cl)cc2)o1` (stereo not drawn) [Example 350, 2-Furanbutanoic acid, 5-(4-chlorohenyl)-γ-oxo-α-(3-phenylpropyl)-], the inhibition at 5 µM was found to be 4% in assay [1] and 20% in assay [2] (at 5 μM).
Turning to `O=C(O)[C@H]1[C@@H](Sc2ccc(F)cc2)CC[C@@H]1C(=O)c1ccc(-c2ccc(Cl)cc2)cc1` (relative stereo) [Example 303, Cyclopentanecarboxylic acid, 2-[(4'-chloro[1,1'-biphenyl]-4-yl)carbonyl]-5-[(4-fluorophenyl)thio]-, (1α,2β,5α)-], the IC50 came to 310 nM in assay [1] and 1400 nM in assay [2].
In the case of `O=C(O)CCC(=O)c1ccc(-c2ccc(F)cc2F)cc1` [Example 11, [1,1'-Biphenyl]-4-butanoic acid, 2',4'-difluoro-γ-oxo-, reference compound], the inhibition at 5 µM stood at 14% in assay [1] and 0% in assay [2] (at 5 μM).
Take `O=C(CC(CSc1cccc2cccnc12)C(=O)O)c1ccc(-c2ccc(Cl)cc2)cc1` (stereo not drawn) [Example 241, [1,1'-Biphenyl]-4-butanoic acid, 4'-chloro-γ-oxo-α-[(8-quinolinylthio)methyl]-]: the IC50 in assay [1] came to 195 nM; in assay [2], 340 nM.
On the same counts, the results for `N#CCc1ccc(-c2ccc(C(=O)CC(CCCc3ccccc3)C(=O)O)cc2)cc1` (stereo not drawn) [Example 50, [1,1'-Biphenyl]-4-butanoic acid, 4'-(cyanomethyl)γ-oxo-α-(3-phenylpropyl)-] are 630 nM and 800 nM.
On the same counts, the results for `O=C(CC(CCCc1ccccc1)C(=O)O)c1ccc(-c2ccc(OCCCl)cc2)cc1` (stereo not drawn) [Example 52, [1,1'-Biphenyl]-4-butanoic acid, 4'-(2-chloroethoxy)-γ-oxo-α-(3-phenylpropyl)-] are 76 nM and 37 nM.
In the same order, the values of `O=C(CC(CSCc1ccccc1)C(=O)O)c1ccc(-c2ccc(Cl)cc2)cc1` (stereo not drawn) [Example 203, [1,1'-Biphenyl]-4-butanoic acid, 4'-chloro-γ-oxo-α-[[(phenylmethyl)thio]methyl]-] are 247 nM and 1200 nM.
Take `CC(C)CC(CC(=O)c1ccc(-c2ccc(F)cc2)cc1)C(=O)O` (stereo not drawn) [Example 15, [1,1'-Biphenyl]-4-butanoic acid, 4'-fluoro-α-(2-methylpropyl)-γ-oxo-]: the IC50 in assay [1] stood at 2000 nM. In addition, the inhibition at 5 µM in assay [2] (at 5 μM) was found to be 0%.
Take `CC(C)(CC(=O)c1ccc(-c2ccc(Cl)cc2)cc1)C(=O)O` [Example 282, [1,1'-Biphenyl]-4-butanoic acid, 4'-chloro-α,α-dimethyl-γ-oxo-]: the inhibition at 5 µM stood at 2% in assay [1] and 0% in assay [2] (at 5 μM).
As for `Cc1ccc(-c2ccc(C(=O)CC(CC(C)C)C(=O)O)cc2)cc1` (stereo not drawn) [Example 21, [1,1'-Biphenyl]-4-butanoic acid, 4'-methyl-α-(2-methylpropyl)-γ-oxo-], the values for the IC50 in assay [1] and in assay [2] were 750 nM and 1200 nM, respectively.
On the same counts, the results for `O=C(CC(CCCCc1ccccc1)C(=O)O)c1ccc(-c2ccc(Cl)cc2)cc1` (stereo not drawn) [Example 179, [1,1'-Biphenyl]-4-butanoic acid, 4'-chloro-γ-oxo-α-(4-phenylbutyl)-] are 160 nM and 200 nM.
`O=C(CC(NC(c1ccccc1)c1ccccc1)C(=O)O)c1ccc(-c2ccc(Cl)cc2)cc1` (stereo not drawn) [Example 260, [1,1'-Biphenyl]-4-butanoic acid, 4'-chloro-α-[(diphenylmethyl)amino]-γ-oxo-, hydrochloride]: the IC50 in assay [1] came to 520 nM. Besides, the inhibition at 5 µM in assay [2] is 16%.
With `O=C(O)CCC(O)c1ccc(-c2ccccc2F)cc1` (stereo not drawn) [Example 39, [1,1'-Biphenyl]-4-butanoic acid, 2'-fluoro-γ-hydroxy-, reference compound], the inhibition at 5 µM in assay [1] stood at 16%; in assay [2] (at 5 μM), 4%.
Take `O=C(CC(CSc1ccc2ccccc2c1)C(=O)O)c1ccc(-c2ccc(Cl)cc2)cc1` (stereo not drawn) [Example 226, [1,1'-Biphenyl]-4-butanoic acid, 4'-chloro-α-[(2-naphthalenylthio)methyl]-γ-oxo-]: the IC50 in assay [1] is 720 nM; in assay [2], 255 nM.
For the compound `Cc1nc(-c2ccc(C(=O)CC(CC(C)C)C(=O)O)cc2)cs1` (stereo not drawn) [Example 348, Benzenebutanoic acid, α-(2-methylpropyl)-4-(2-methyl-4-thiazolyl)γ-oxo-], the inhibition at 5 µM in assay [1] stood at 31%; in assay [2] (at 5 μM) it was 36%.
For the compound `O=C(CC(CCCc1ccccc1)C(=O)O)c1ccc(-c2cccs2)cc1` (stereo not drawn) [Example 80, Benzenepentanoic acid, α-[2-oxo-2-[4-(2-thienyl)phenyl]ethyl]-], the IC50 in assay [1] was 470 nM; in assay [2], 800 nM.
For the compound `O=C(O)CC1(CC(=O)c2ccc(-c3ccc(Cl)cc3)cc2)CCCCC1` [Example 339, Cyclohexaneacetic acid, 1-[2-(4'-chloro[1,1'-biphenyl]-4-yl)-2-oxoethyl]-], the IC50 in assay [1] is 1700 nM; in assay [2], 1500 nM.
As for `O=C(CC(CCCc1ccccc1)C(=O)O)c1ccc(-c2cc(C(F)(F)F)cc(C(F)(F)F)c2)cc1` (stereo not drawn) [Example 79, [1,1'-Biphenyl]-4-butanoic acid, γ-oxo-α-(3-phenylpropyl)-3',5'-bis(trifluoromethyl)-], the inhibition at 5 µM in assay [1] turned out to be 12%; in assay [2] (at 5 μM), 9%.
Regarding `CC(=O)SCC(CC(=O)c1ccc(C)cc1)C(=O)O` (stereo not drawn) [Example 253, Benzenebutanoic acid, α-[(acetylthio)methyl]-4-methyl-γ-oxo-, reference compound], the inhibition at 5 µM stood at 0% in assay [1] and 21% in assay [2] (at 5 μM).
`O=C(CC(CCCc1ccccc1)C(=O)O)c1ccc(-c2ccc(F)c(Cl)c2)cc1` (stereo not drawn) [Example 74, [1,1'-Biphenyl]-4-butanoic acid, 3'-chloro-4'-fluoro-γ-oxo-α-(3-phenylpropyl)-]: in assay [1], the half-inhibitory concentration (IC50) stood at 2300 nM. The inhibition at 5 µM in assay [2] (at 5 μM) amounted to 38%.
As to `O=C(O)CCC(CCCc1ccccc1)C(=O)c1ccc(-c2ccc(Cl)cc2)cc1` (stereo not drawn) [Example 343, [1,1'-Biphenyl]-4-pentanoic acid, 4'-chloro-δ-oxo-γ-(phenylpropyl)-], the IC50 in assay [1] came out at 500 nM; in assay [2], 680 nM.
As for `C#CCC(CC(=O)c1ccc(-c2ccc(Cl)cc2)cc1)C(=O)O` (stereo not drawn) [Example 121, [1,1'-Biphenyl]-4-butanoic acid, 4'-chloro-γ-oxo-α-2-propynyl-], the IC50 in assay [1] came out at 1000 nM. Further, the inhibition at 5 µM in assay [2] (at 5 μM) worked out at 45%.
For the compound `O=Cc1ccccc1-c1ccc(C(=O)CC(CCCc2ccccc2)C(=O)O)cc1` (stereo not drawn) [Example 82, [1,1'-Biphenyl]-4-butanoic acid, 2'-formyl-γ-oxo-α-(3-phenylpropyl)-], the results for the inhibition at 5 µM in assay [1] and in assay [2] (at 5 μM) were 23% and 9%, respectively.
Consider `CC(C)(C)OC(=O)Nc1ccc(-c2ccc(C(=O)CC(CCCc3ccccc3)C(=O)O)cc2)cc1` (stereo not drawn) [Example 47, [1,1'-Biphenyl]-4-butanoic acid, 4'-[[(1,1-dimethylethoxy)carbonyl]amino]-γ-oxo-α-(3-phenylpropyl)-], for which the IC50 in assay [1] turned out to be 560 nM. For the same compound, in assay [2] (at 5 μM), the inhibition at 5 µM came out at 22%.
For `O=C(CC(CCc1ccccc1)C(=O)O)c1ccc(-c2ccc(Cl)cc2)cc1` (stereo not drawn) [Example 132, [1,1'-Biphenyl]-4-butanoic acid, 4'-chloro-γ-oxo-α-(2-phenylethyl)-], the results for the IC50 in assay [1] and in assay [2] were 112 nM and 2600 nM, respectively.
Turning to `O=C(O)CC1(CC(=O)c2ccc(-c3ccc(Cl)cc3)cc2)CCCC1` [Example 336, Cyclopentaneactic acid, 1-[2-(4'-chloro[1,1'-biphenyl]-4-yl)-2-oxoethyl]-], the values for the IC50 in assay [1] and in assay [2] were 1400 nM and 600 nM, respectively.
Consider `CCCCOc1ccc(-c2ccc(C(=O)CC(CCCc3ccccc3)C(=O)O)cc2)cc1` (stereo not drawn) [Example 89, [1,1'-Biphenyl]-4-butanoic acid, 4'-butoxy-γ-oxo-α-(3-phenylpropyl)-], for which the figures for the IC50 in assay [1] and in assay [2] were 111 nM and 480 nM, respectively.
`CC(C)CC(CC(=O)c1ccc(-c2ccc(Cl)c(Cl)c2)cc1)C(=O)O` (stereo not drawn) [Example 64, [1,1'-Biphenyl]-4-butanoic acid, 3',4'-dichloro-α-(2-methylpropyl)-γ-oxo-]: in assay [1], the IC50 came out at 300 nM. Also, the inhibition at 5 µM in assay [2] (at 5 μM) turned out to be 29%.
For the compound `O=C(O)[C@@H]1C[C@H]1C(=O)c1ccc(-c2ccc(Cl)cc2)cc1` (relative stereo) [Example 293, Cyclopropanecarboxylic acid, 2-[(4'-chloro[1,1'-biphenyl]-4-yl)carbonyl]-, trans-, reference compound], the inhibition at 5 µM turned out to be 16% in assay [1] and 0% in assay [2] (at 5 μM).
As to `CC(=O)Nc1ccc(SCC(CC(=O)c2ccc(-c3ccc(Cl)cc3)cc2)C(=O)O)cc1` (stereo not drawn) [Example 223, [1,1'-Biphenyl]-4-butanoic acid, α-[[[4-(acetylamino)phenyl]thio]methyl]-4'-chloro-γ-oxo-], the IC50 was 930 nM in assay [1] and 580 nM in assay [2].
In the same order, the values of `O=C(CC(CSc1ccc(Cl)cc1)C(=O)O)c1ccc(-c2ccc(Cl)cc2)cc1` (stereo not drawn) [Example 209, [1,1'-Biphenyl]-4-butanoic acid, 4'-chloro-α-[[(4-chlorophenyl)thio]methyl]-γ-oxo-] are 340 nM and 390 nM.

These data come from US5789434A, “Derivatives of substituted 4-biarylbutyric acid as matrix metalloprotease inhibitors” (priority 1995, dated 1998).
